From US20240150365A1 (Hotspot Therapeutics, Inc., priority 2022, published 2024)
pIC50: −log10 of the molar value.

Experiments:
MALT1 = target: T1, MALT1 (Homo sapiens, UniProt Q9UDY8); assay: MALT-1 Fluorogenic Peptide Cleavage Assay (MALT1 inhibition assay); assay type: biochemical; conditions: Avi-tagged FL MALT-1, Ac-LRSR-AMC peptide substrate, 30 min pre-incubation, 90 min reaction
T1 construct: Avi-tagged FL MALT-1 (Pharmaron, stored at −70° C.); Avi tag
T1 sequence (Q9UDY8 1-824): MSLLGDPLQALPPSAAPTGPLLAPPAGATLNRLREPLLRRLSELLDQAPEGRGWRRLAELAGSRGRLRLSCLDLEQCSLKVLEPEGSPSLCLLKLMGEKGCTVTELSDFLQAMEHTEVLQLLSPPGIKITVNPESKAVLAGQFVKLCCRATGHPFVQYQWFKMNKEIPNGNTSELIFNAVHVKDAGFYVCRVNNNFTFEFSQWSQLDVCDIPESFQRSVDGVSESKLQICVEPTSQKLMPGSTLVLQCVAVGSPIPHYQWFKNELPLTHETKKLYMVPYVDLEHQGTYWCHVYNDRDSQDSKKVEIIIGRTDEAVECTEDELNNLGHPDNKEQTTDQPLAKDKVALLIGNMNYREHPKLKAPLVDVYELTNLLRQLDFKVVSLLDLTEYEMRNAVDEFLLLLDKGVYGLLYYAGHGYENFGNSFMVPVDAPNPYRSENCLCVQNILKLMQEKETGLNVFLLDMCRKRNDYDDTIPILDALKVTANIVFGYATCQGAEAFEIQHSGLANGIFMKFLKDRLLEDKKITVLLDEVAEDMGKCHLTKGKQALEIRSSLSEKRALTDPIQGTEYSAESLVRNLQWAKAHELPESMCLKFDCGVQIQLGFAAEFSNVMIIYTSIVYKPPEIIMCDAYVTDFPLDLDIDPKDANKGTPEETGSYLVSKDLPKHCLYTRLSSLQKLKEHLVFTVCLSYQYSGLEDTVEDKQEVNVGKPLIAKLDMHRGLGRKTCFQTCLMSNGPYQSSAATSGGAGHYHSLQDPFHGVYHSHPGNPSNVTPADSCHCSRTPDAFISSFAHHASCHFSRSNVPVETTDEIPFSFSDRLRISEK
In short: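 Avi-tagged full-length MALT1 pre-incubated 30 min with compound (2% DMSO final), then cleavage of Ac-LRSR-AMC followed over 90 min at room temperature. AMC fluorescence read at 342/441 nm; % inhibition fitted to sigmoidal curves for IC50.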

NF-kB = NF-kB reporter assay in Jurkat cells stimulated with aCD3/aCD28/PMA; assay type: cell-based; conditions: Homo sapiens, Jurkat, Jurkat cells, 1 hr compound incubation, aCD3/aCD28/PMA stimulation 4 hr, One-Glo readout; read-out: NF-kB Reporter Assay IC50
In short: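 Jurkat cells (25,000/well, serum-free RPMI 1640) preincubated 1 hr at 37° C with serially diluted compound, then stimulated with aCD3/aCD28/PMA (final 5 μg/mL, 5 μg/mL, 0.03 μg/mL) for 4 hr. Reporter luminescence read with One-Glo; IC50 derived.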

SMILES | pIC50 (MALT1) | pIC50 (NF-kB)
Cn1ncc2cccc(NS(=O)(=O)c3ccc(-c4cc5cnccc5[nH]4)nc3)c21 [Example I-77, N-(1-Methyl-1H-Indazol-7-yl)-6-(1H-Pyrrolo[3,2-C]Pyridin-2-yl)Pyridine-3-Sulfonamide] | < 5.60 | < 5.60
Cn1ncc2cccc(NS(=O)(=O)c3ccc(-c4cc[nH]c4)nc3)c21 [Example I-79, N-(1-Methyl-1H-Indazol-7-yl)-6-(1H-Pyrrol-3-yl)Pyridine-3-Sulfonamide] | < 5.60 | 5.60 to 6.00
Cn1ncc2cccc(NS(=O)(=O)c3ccc(-c4ccc[nH]4)nc3)c21 [Example I-80, N-(1-Methyl-1H-Indazol-7-yl)-6-(1H-Pyrrol-2-yl)Pyridine-3-Sulfonamide] | < 5.60 | 5.60 to 6.00
Cn1ncc2cccc(NS(=O)(=O)c3ccc(-c4ccn[nH]4)nc3)c21 [Example I-81, N-(1-Methyl-1H-Indazol-7-yl)-6-(1H-Pyrazol-5-yl)Pyridine-3-Sulfonamide] | < 5.60 | 6.00 to 6.40
Cn1nccc1-c1ccc(S(=O)(=O)Nc2cccc3cnn(C)c23)cn1 [Example I-82, N-(1-Methyl-1H-Indazol-7-yl)-6-(1-Methyl-1H-Pyrazol-5-yl)Pyridine-3-Sulfonamide] | < 5.60 | 6.00 to 6.40
Cc1cc(-c2ccc(S(=O)(=O)Nc3cccc4cnn(C)c34)cn2)[nH]n1 [Example I-83, N-(1-Methyl-1H-Indazol-7-yl)-6-(3-Methyl-1H-Pyrazol-5-yl)Pyridine-3-Sulfonamide] | < 5.60 | > 6.40
Cn1ncc2cccc(NS(=O)(=O)c3ccc(-c4cc(C(F)(F)F)n[nH]4)nc3)c21 [Example I-84, N-(1-Methyl-1H-Indazol-7-yl)-6-(3-(Trifluoromethyl)-1H-Pyrazol-5-yl)Pyridine-3-Sulfonamide] | 6.00 to 6.40 | > 6.40
Cn1ncc2cccc(NS(=O)(=O)c3ccc(-c4c[nH]nc4C(F)(F)F)nc3)c21 [Example I-85, N-(1-Methyl-1H-Indazol-7-yl)-6-(3-(Trifluoromethyl)-1H-Pyrazol-4-yl)Pyridine-3-Sulfonamide] | < 5.60 | > 6.40
Cn1ncc2cccc(NS(=O)(=O)c3ccc(-c4cnn(C(F)F)c4)nc3)c21 [Example I-86, 6-(1-(Difluoromethyl)-1H-Pyrazol-4-yl)-N-(1-Methyl-1H-Indazol-7-yl)Pyridine-3-Sulfonamide] | < 5.60 | > 6.40
Cc1nn(C)cc1-c1ccc(S(=O)(=O)Nc2cccc3cnn(C)c23)cn1 [Example I-87, 6-(1,3-Dimethyl-1H-Pyrazol-4-yl)-N-(1-Methyl-1H-Indazol-7-yl)Pyridine-3-Sulfonamide] | < 5.60 | > 6.40
Cc1c(-c2ccc(S(=O)(=O)Nc3cccc4cnn(C)c34)cn2)cnn1C [Example I-88, 6-(1,5-Dimethyl-1H-Pyrazol-4-yl)-N-(1-Methyl-1H-Indazol-7-yl)Pyridine-3-Sulfonamide] | < 5.60 | > 6.40
Cc1nn(C)c(C)c1-c1ccc(S(=O)(=O)Nc2cccc3cnn(C)c23)cn1 [Example I-89, N-(1-Methyl-1H-Indazol-7-yl)-6-(1,3,5-Trimethyl-1H-Pyrazol-4-yl)Pyridine-3-Sulfonamide] | < 5.60 | > 6.40
Cn1cncc1-c1ccc(S(=O)(=O)Nc2cccc3cnn(C)c23)cn1 [Example I-90, 6-(1-Methyl-1H-Imidazol-5-yl)-N-(1-Methyl-1H-Indazol-7-yl)Pyridine-3-Sulfonamide] | < 5.60 | 6.00 to 6.40
Cc1cc(-c2ccc(S(=O)(=O)Nc3cccc4cnn(C)c34)cn2)on1 [Example I-98, N-(1-Methyl-1H-Indazol-7-yl)-6-(3-Methylisoxazol-5-yl)Pyridine-3-Sulfonamide] | < 5.60 | > 6.40
Cn1ncc2cccc(NS(=O)(=O)c3ccc(-c4cncs4)nc3)c21 [Example I-101, N-(1-Methyl-1H-Indazol-7-yl)-6-(Thiazol-5-yl)Pyridine-3-Sulfonamide] | > 6.40 | > 6.40
Cc1nc(C)c(-c2ccc(S(=O)(=O)Nc3cccc4cnn(C)c34)cn2)s1 [Example I-103, 6-(2,4-Dimethylthiazol-5-yl)-N-(1-Methyl-1H-Indazol-7-yl)Pyridine-3-Sulfonamide] | 6.00 to 6.40 | > 6.40
COc1ccc2cnn(C)c2c1N(C)S(=O)(=O)c1ccc(-c2cc(C(F)(F)F)nn2C)nc1 [Example I-104, N-(6-Methoxy-1-Methyl-1H-Indazol-7-yl)-N-Methyl-6-(1-Methyl-3-(Trifluoromethyl)-1H-Pyrazol-5-yl)Pyridine-3-Sulfonamide] | > 6.40 | > 6.40
Cn1ncc2cccc(NS(=O)(=O)c3ccc(-n4cc(C(N)=O)cn4)nc3)c21 [Example I-105, 1-(5-(N-(1-Methyl-1H-Indazol-7-yl)Sulfamoyl)Pyridin-2-yl)-1H-Pyrazole-4-Carboxamide] | < 5.60 | < 5.60
COc1ccc2[nH]nc(C)c2c1NS(=O)(=O)c1ccc(-n2cc(C(F)(F)F)cn2)nc1 [Example I-106, N-(5-Methoxy-3-Methyl-1H-Indazol-4-yl)-6-(4-(Trifluoromethyl)-1H-Pyrazol-1-yl)Pyridine-3-Sulfonamide] | > 6.40 | > 6.40
Cn1cc(-c2ccc(S(=O)(=O)Nc3cccc4cnn(C)c34)cn2)cn1 [Example I-107, N-(1-Methyl-1H-Indazol-7-yl)-6-(1-Methyl-1H-Pyrazol-4-yl)Pyridine-3-Sulfonamide] | < 5.60 | > 6.40
COc1cc(-c2ccc(S(=O)(=O)Nc3cccc4cnn(C)c34)cn2)ccn1 [Example I-108, 2′-Methoxy-N-(1-Methyl-1H-Indazol-7-yl)-[2,4′-Bipyridine]-5-Sulfonamide] | < 5.60 | > 6.40
Cn1ncc2cccc(NS(=O)(=O)c3ccc(-c4cccnc4)nc3)c21 [Example I-109, N-(1-Methyl-1H-Indazol-7-yl)-[2,3′-Bipyridine]-5-Sulfonamide] | < 5.60 | > 6.40
CN(C)c1ccc(-c2ccc(S(=O)(=O)Nc3cccc4cnn(C)c34)cn2)cn1 [Example I-110, 6′-(Dimethylamino)-N-(1-Methyl-1H-Indazol-7-yl)-[2,3′-Bipyridine]-5-Sulfonamide] | < 5.60 | > 6.40
COc1cccc(-c2ccc(S(=O)(=O)Nc3cccc4cnn(C)c34)cn2)n1 [Example I-111, 6′-Methoxy-N-(1-Methyl-1H-Indazol-7-yl)-[2,2′-Bipyridine]-5-Sulfonamide] | < 5.60 | > 6.40
Cn1cc(-c2ccc(S(=O)(=O)Nc3cccc4cnn(C)c34)cn2)ccc1=O [Example I-112, 1′-Methyl-N-(1-Methyl-1H-Indazol-7-yl)-6′-Oxo-1′,6′-Dihydro-[2,3′-Bipyridine]-5-Sulfonamide] | < 5.60 | < 5.60
Cc1ncccc1-c1ccc(S(=O)(=O)Nc2cccc3cnn(C)c23)cn1 [Example I-113, 2′-Methyl-N-(1-Methylindazol-7-yl)-[2,3′-Bipyridine]-5-Sulfonamide] | < 5.60 | 6.00 to 6.40
Cc1ncncc1-c1ccc(S(=O)(=O)Nc2cccc3cnn(C)c23)cn1 [Example I-115] | < 5.60 | < 5.60
Cn1ncc2cccc(NS(=O)(=O)c3ccc(-c4ccncc4)nc3)c21 [Example I-116, N-(1-METHYL-1H-INDAZOL-7-YL)-[2,4′-BIPYRIDINE]-5-SULFONAMIDE] | < 5.60 | 6.00 to 6.40
